This note sets out measurements from EP1184030A1, “Antibacterial composition comprising trimethylnorbornanylcyclohexanol derivatives” (Givaudan SA, priority 2000, dated 2002).

Values after ≈ are worked out from the molar mass of the structure shown. Like-named read-outs stand apart in the source and are kept apart here.

Holding throughout (assay): MIC microtiter plate test, axilla bacteria
What all share (type): cell-based

In assay [1] the test system is Ax 10 Corynebacterium jeikeium. To be noted: Corynebacterium jeikeium, 24 h, read-out: Minimal inhibitory concentration (MIC). The source says:
(§1) The different bacterial strains had been isolated from the human axilla by current microbiological practice. They were taxonomically identified by cell morphology, gram-reaction and biochemical tests included in the Api coryne test kit (BioMerieux, France). Strain Staphylococcus epidermidis Ax25 was identified by fatty acid methyl ester analysis (FAME; German type strain collection DSMZ, Germany). The strains were maintained on Tryptic soy broth plates, this standard medium being amended with 5 g per Litre of Tween 80 and 1 g of Soybean lecithin. Plates were incubated at 36° C for a period 48 hours. The bacteria were then swabbed from the plates and suspended in 4 ml of Müller-Hinton broth amended with 100 mg of Tween80 per Litre (MH-Tween) and incubated again at 36° C for 16 hours. Following incubation the bacterial suspensions were diluted in MH-Tween to obtain a final cell density of 10^6 colony forming units per ml. For each fragrance material four microtiter plates were used in the example, each microtiter plate having 8 rows, A-H, and 12 columns, 1-12. To each column a diluted suspension of a different test organism was distributed, 100 µl per well. 1% stock solutions of the fragrance materials were then prepared in MH-Tween broth. The fragrance material was dispersed by ultrasonication into the aqueous medium to obtain a homogenous emulsion. 100 µl per well of this emulsion was then added to the first row of the microtiter plates already containing the target organisms. Serial dilution series were then prepared starting at row A and continuing until row G, each time removing 100 µl from a well and transferring it to the next well. In this way fragrance concentrations of 0.5%, 0.25%, 0.125%, 0.0625%, 0.03125%, 0.0156% and 0.0078% were tested for their antibacterial efficacy. The reference compound Triclosan was tested at 16 fold lower concentrations. The plates were covered with plastic films and incubated for 24 h at 36° C with shaking at 250 rpm. The turbidity developing in the microtiter plates was then examined after 24 h to determine microbial growth. The minimal concentration of fragrance inhibiting the growth of an organism by at least 80% was determined as the minimal inhibitory concentration (MIC).
(§2) Ax 25 was identified as Staphylococcus epidermidis by FAME analysis. Identification with the Api Coryne test kit yielded the following species assignments for the remainder of the strains: Ax 26 Corynebacterium sp.; Ax 3 Corynebacterium bovis; Ax 7 Corynebacterium group G; Ax 10 Corynebacterium jeikeium; Ax 11 Corynebacterium jeikeium; Ax 12 Corynebacterium jeikeium; Ax 15 Corynebacterium jeikeium; Ax 20 Corynebacterium striatum/amycolatum; Ax 19 Corynebacterium jeikeium. The strains were isolated from the axilla of 8 human volunteers. Based on biochemical tests and colony morphology all strains were distinct from each other, even the several strains all belonging to Corynebacterium jeikeium.

Assay [2] has as its system Ax 15 Corynebacterium jeikeium. The conditions noted are these: for MIC: Corynebacterium jeikeium, 24 h.
Source text: as §1, §2

Assay [3] relates to Ax 7 Corynebacterium group G. The conditions noted are these: for MIC: Corynebacterium, 24 h.
Source text: as §1, §2

Assay [4] deals with Ax 26 Corynebacterium sp. To be noted: for MIC: Corynebacterium.
Source text: as §1, §2

Assay [5] deals with Staphylococcus epidermidis Ax25. The conditions noted are these: for MIC: Staphylococcus epidermidis, AX25, 24 h.
Source text: as §1, §2

For assay [6], the system named is Ax 20 Corynebacterium striatum/amycolatum. The conditions noted are these: Corynebacterium striatum, 24 h, read-out: Minimal inhibitory concentration (MIC).
Source text: as §1, §2

Assay [7] deals with Ax 19 Corynebacterium jeikeium. The conditions noted are these: 24 h, read-out: Minimal inhibitory concentration (MIC).
Source text: as §1, §2

The subject of assay [8] is Ax 3 Corynebacterium bovis. To be noted: Corynebacterium bovis, 24 h, read-out: Minimal inhibitory concentration (MIC).
Source text: as §1, §2

Assay [9] deals with Ax 12 Corynebacterium jeikeium. To be noted: Corynebacterium jeikeium, 24 h, read-out: Minimal inhibitory concentration (MIC).
Source text: as §1, §2

Assay [10] concerns Ax 11 Corynebacterium jeikeium. The conditions noted are these: Corynebacterium jeikeium, 24 h, read-out: Minimal inhibitory concentration (MIC).
Source text: as §1, §2

Setting [11] is: read-out: Bacteriostatic activity (concentration needed for at least 80% reduction in growth).
The mark [12] stands for this setting: read-out: Minimal inhibitory concentration (MIC).

On to `Oc1cc(Cl)ccc1Oc1ccc(Cl)cc1Cl` [Triclosan, 2,4,4'-trichloro-2'-hydroxy-diphenyl-ether], for which the MIC in [1] is 20 µg/mL (≈ 69.1 µM); in assay [2] (setting [11]), 30 µg/mL (≈ 104 µM); in [2] (setting [12]), 29 µg/mL (≈ 100 µM); in assay [3] (setting [11]), 25 µg/mL (≈ 86.3 µM); in assay [3] (setting [12]), 29 µg/mL (≈ 100 µM); in assay [4] (Ax26, growth inhibition by at least 80%, 24 h at 36° C, read-out: Minimal inhibitory concentration (MIC)) it was 15 µg/mL (≈ 51.8 µM). The MIC was found to be 25 µg/mL (≈ 86.3 µM) in [4] (Table 7, Corynebact. Ax26, 24 hours, read-out: Bacteriostatic activity (concentration needed for at least 80% reduction in growth)); 0.15 µg/mL (≈ 0.518 µM) in [5] (setting [11]); 0.15 µg/mL (≈ 0.518 µM) in [5] (setting [12]); 107 µg/mL (≈ 370 µM) in assay [6]; 39 µg/mL (≈ 135 µM) in [7]; 29 µg/mL (≈ 100 µM) in assay [8]. The MIC was determined as 17 µg/mL (≈ 58.7 µM) in assay [9] and 29 µg/mL (≈ 100 µM) in assay [10]. Further, the “Bacteriostatic activity (concentration needed for at least 80% reduction in growth)” value in assay [2] (Table 8, Corynebact. Ax15, 24 hours) was 0.0030 percent (w/v); in [3] (Table 8, Corynebact. Ax7, 24 hours) it was 0.0025 percent (w/v); in [4] (Table 8, Corynebact. Ax26, 24 hours), 0.0025 percent (w/v); in assay [5] (Table 8, S. epidermidis, 24 hours), 0.000015 percent (w/v).
